Results from US20260096556A1, “AGRICULTURAL METHODS” (priority 2022, published 2026).

System: Phakopsora pachyrhizi
Test: Field trials: foliar spray on soybean plants, severity of infection from Phakopsora pachyrhizi
Type: in vivo
Settings: for % control (% reduction of the area under the disease pressure curve): Brazil, soybean, 3 foliar applications, 75 g ai/ha
Description: Various compounds were formulated (a commercial EC250 formulation for prothioconazole, an SC100 formulation for compound X.04), diluted into a spray solution including an adjuvant, and applied to soybean plants in a foliar broadcast spray using a handheld horizontal boom sprayer. Three applications were made over the course of the growing season, starting approximately 45 days after crop emergence, with following applications at approximately 14 day intervals. Trials were conducted across five locations in Brazil.
Assessments of severity of infection from Phakopsora pachyrhizi were made at approximately weekly intervals, based on the percentage of leaf area covered by disease lesions. This is expressed in {Table B1} as a final % severity. The performance of the treatments were calculated as % reduction of the area under the disease pressure curve for the treated plots in the trial, based on assessments up to 28 days after the third application. Samples were taken from diseased leaves in the untreated plots and evaluated for the % population frequency of the F129L mutation that generates resistance to strobilurin fungicides.
Samples of leaves were taken from the untreated plots and DNA extracted from disease lesions. qPCR analysis was conducted to determine the frequency of F129L within the sampled pathogen population.

[1] = Trial A, F129L frequency in untreated 94.33%, untreated severity 97.50%
[2] = Trial B, F129L frequency in untreated 93.67%, untreated severity 83.10%
[3] = Trial C, F129L frequency in untreated 93.00%, untreated severity 96.80%
[4] = Trial D, F129L frequency in untreated 22.00%, untreated severity 74.2%
[5] = Trial E, F129L frequency in untreated 44.67%, untreated severity 95.00%

| Structure (SMILES) | % control (% reduction of the area under the disease pressure curve) [1] [%] | % control (% reduction of the area under the disease pressure curve) [2] [%] | % control (% reduction of the area under the disease pressure curve) [3] [%] | % control (% reduction of the area under the disease pressure curve) [4] [%] | % control (% reduction of the area under the disease pressure curve) [5] [%] | performance compared to prothioconazole and to a commercial standard containing prothioconazole and a standard strobilurin fungicide (trials with a high (>90%) frequency of F129L in the untreated population) |
| --- | --- | --- | --- | --- | --- | --- |
| CO/C=C(\Oc1cc(C2CCCCC2)ccc1C)C(=O)OC [compound X.04, methyl (Z)-2-(5-cyclohexyl-2-methyl-phenoxy)-3-methoxy-prop-2-enoate] | 91.00 | 45.50 | 95.46 | 71.39 | 63.48 | superior |
| OC(Cc1ccccc1Cl)(Cn1nc[nH]c1=S)C1(Cl)CC1 (centres unmarked) [prothioconazole, reference compound] | 72.66 | 28.86 | 63.89 | 72.53 | 67.30 | – |
